Biological target: T1, AR (Homo sapiens, UniProt P10275)
T1 construct: endogenous in cells; host or cells: VCaP cells
T1 sequence (P10275 1-920): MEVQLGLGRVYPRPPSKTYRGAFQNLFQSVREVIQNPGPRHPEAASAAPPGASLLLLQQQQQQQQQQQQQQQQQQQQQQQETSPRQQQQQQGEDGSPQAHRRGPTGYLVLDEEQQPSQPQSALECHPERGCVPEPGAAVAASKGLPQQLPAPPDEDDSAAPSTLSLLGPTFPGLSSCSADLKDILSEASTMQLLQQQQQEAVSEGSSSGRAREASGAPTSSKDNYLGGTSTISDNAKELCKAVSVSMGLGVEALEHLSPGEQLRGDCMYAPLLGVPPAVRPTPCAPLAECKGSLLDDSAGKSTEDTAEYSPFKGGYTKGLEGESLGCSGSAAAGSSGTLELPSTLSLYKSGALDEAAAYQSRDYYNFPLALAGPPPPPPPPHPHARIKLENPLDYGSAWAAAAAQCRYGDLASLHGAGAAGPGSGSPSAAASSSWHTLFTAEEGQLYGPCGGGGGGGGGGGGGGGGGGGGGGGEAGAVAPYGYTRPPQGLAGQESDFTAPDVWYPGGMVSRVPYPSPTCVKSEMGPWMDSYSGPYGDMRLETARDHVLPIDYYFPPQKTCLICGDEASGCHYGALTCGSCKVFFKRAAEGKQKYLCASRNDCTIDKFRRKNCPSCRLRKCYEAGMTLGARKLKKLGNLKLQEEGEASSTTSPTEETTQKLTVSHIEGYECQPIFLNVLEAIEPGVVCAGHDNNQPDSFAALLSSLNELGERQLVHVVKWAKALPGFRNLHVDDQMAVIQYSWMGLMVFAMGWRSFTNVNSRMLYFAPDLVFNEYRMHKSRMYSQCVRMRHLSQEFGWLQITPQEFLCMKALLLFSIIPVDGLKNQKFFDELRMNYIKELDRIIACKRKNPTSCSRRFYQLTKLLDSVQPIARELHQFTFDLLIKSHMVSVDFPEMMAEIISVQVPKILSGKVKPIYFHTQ
Assay: VCAP AR Degradation Assay
Format: cell-based
Conditions: VCaP cells, 24 h; for DC50: AR ELISA, concentration when AR level = 50% of DMSO control; for Ymin: lowest AR level normalized to DMSO control, given as numbers
Outline: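 VCaP cells in DMEM with 8% FBS treated 24 h at 37° C with a 10-point 1:3 series (top 5 μM final; 0.1% DMSO control). Total AR measured in lysates by sandwich ELISA and normalized to DMSO; DC50/EC50 from four-parameter logistic fit, with the lowest normalized AR level reported as Y.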

Row | Structure (SMILES) | DC50 | Ymin
1 | CC1(C)C(=O)N(c2ccc(C#N)c(C(F)(F)F)c2)C(=S)N1[C@H]1CC[C@H](OCCC2CCN(CC(=O)Nc3ccc(C4CCC(=O)NC4=O)cc3)CC2(F)F)CC1 (stereo partly drawn) [Cmpd 43, 2-(4-(2-(((trans)-4-(3-(4-Cyano-3-(trifluoromethyl)phenyl)-5,5-dimethyl-4-oxo-2-thioxoimidazolidin-1-yl)cyclohexyl)oxy)ethyl)-3,3-difluoropiperidin-1-yl)-N-(4-(2,6-dioxopiperidin-3-yl)phenyl)acetamide] | ≤ 5 nM | 18 % of DMSO control
2 | CC1(C)C(=O)N(c2cnc(C#N)c(C(F)(F)F)c2)C(=S)N1[C@H]1CC[C@H](OCCC2CCN(CC(=O)Nc3ccc(C4CCC(=O)NC4=O)cc3)CC2(F)F)CC1 (stereo partly drawn) [Cmpd 44, 2-(4-(2-(((trans)-4-(3-(6-Cyano-5-(trifluoromethyl)pyridin-3-yl)-5,5-dimethyl-4-oxo-2-thioxoimidazolidin-1-yl)cyclohexyl)oxy)ethyl)-3,3-difluoropiperidin-1-yl)-N-(4-(2,6-dioxopiperidin-3-yl)phenyl)acetamide] | ≤ 5 nM | 12 % of DMSO control

From patent US20240368118A1, “CEREBLON BINDING COMPOUNDS, COMPOSITIONS THEREOF, AND METHODS OF TREATMENT THEREWITH” (CELGENE CORPORATION, priority 2021, published 2024)
